Results reported in publication PMC10606488, “Usnic Acid Derivatives Inhibit DNA Repair Enzymes Tyrosyl-DNA Phosphodiesterases 1 and 2 and Act as Potential Anticancer Agents” (Genes, 2023).
Like-named read-outs stand apart in the source and are kept apart here.

How the values were obtained:
Recombinant human Tdp2 [1] = molecular target: T1, Recombinant human Tdp2 (Homo sapiens, UniProt O95551); parameters: method as in PMID 34768766, PMID 35011303; settings: Figure 2; cited from earlier work
T1 construct: made in house
T1 sequence (O95551 1-362): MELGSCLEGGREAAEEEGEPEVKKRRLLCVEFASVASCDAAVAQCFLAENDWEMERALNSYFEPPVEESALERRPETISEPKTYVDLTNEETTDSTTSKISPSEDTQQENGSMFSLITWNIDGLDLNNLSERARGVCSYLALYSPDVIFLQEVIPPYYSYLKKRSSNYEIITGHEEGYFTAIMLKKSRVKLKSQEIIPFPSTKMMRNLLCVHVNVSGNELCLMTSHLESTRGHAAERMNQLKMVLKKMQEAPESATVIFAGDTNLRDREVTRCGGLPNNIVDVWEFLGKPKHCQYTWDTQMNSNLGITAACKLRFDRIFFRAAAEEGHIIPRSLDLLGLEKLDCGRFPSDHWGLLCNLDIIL

[2] = system: purified recombinant human Tdp1; settings: cited from earlier work
Recombinant human Tdp2 [3] = molecular target: T1, Recombinant human Tdp2; assay: Gel-based Tdp2 activity assay; format: biochemical
HEK293FT Tdp2−/− cells = assay: Intrinsic cytotoxicity, MTT test, Tdp2 knockout cells; format: cell-based, human; settings: 10 μM compound, 3 days
Procedure: (§1) The intrinsic cytotoxicity of the compounds was examined against cell line HEK293FT (human embryonic kidney) with a standard MTT test. The cells were grown in DMEM-F12 medium, with 50 IU/mL penicillin and 50 µg/mL streptomycin (Thermo Fisher Scientific, Waltham, MA, USA) in the presence of 10% fetal bovine serum (Biolot, Saint-Petersburg, Russia) in 5% CO2 atmosphere. Tested compounds were added after formation of a 30–50% monolayer to the medium (1:100 added reagents to the total volume of the culture medium, thus the final concentration of DMSO was 1%) and the cell culture was monitored for 3 days. Control cells were grown in the presence of 1% DMSO. The measurements of cytotoxicity were carried out in three repeats.
We performed a selection of protospacers for human Tdp2 gene knockout with the Benchling CRISPR tool (https://www.benchling.com/) (accessed on 13 February 2020). Two 20-nt protospacer sequences were selected for deletion of exon 6 (PAM sequences in brackets) of the human Tdp2 gene (NM_016614.3): Tdp2-gRNA1 […](AGG) and Tdp2-gRNA2 […](TGG). The scheme of protospacers in the Tdp2 gene is shown on Figure S9A in the Supplementary Materials. Oligonucleotides were cloned in a pSpCas9(BB)-2A-GFP (PX458) plasmid that was a kind gift from Dr. Feng Zhang (Addgene plasmid #48138; http://n2t.net/addgene:48138 (accessed on 13 February 2020), RRID:Addgene_48138) as previously described. Transfection-grade DNA plasmids were isolated with the Plasmid Plus Midi Kit (QIAGEN, Hilden, Germany).
We transfected HEK293FT cells with the constructed plasmids (0.25 µg of each) pX458-Tdp2-gRNA1 and pX458-Tdp2-gRNA2 using Lipofectamine 3000 Reagent (Thermofisher Scientific, Waltham, MA, USA). We used growth medium containing DMEM/F12 (Thermofisher Scientific, MA, USA) 1:1, 10% fetal bovine serum (Thermofisher Scientific, MA, USA), 100 U/mL penicillin–streptomycin (Thermofisher Scientific, MA, USA), and GlutaMAX (1×) (Thermofisher Scientific, Waltham, MA, USA). […]

HEK293FT wild-type cells = assay: Intrinsic cytotoxicity, MTT test, wild-type cells; format: cell-based, human; settings: 10 μM compound, 3 days
Procedure: as §1
Since Tdp inhibitors are intended to be used in therapeutic cocktails, non-toxic concentrations of the compounds are required so as not to exacerbate the already serious side effects of therapy. We studied the intrinsic cytotoxicity of the compounds, (−)-11a,d,h, that inhibited Tdp2 on HEK293FT wild-type cells and Tdp2 knockout (Tdp2^−/−) cells (Figure 3). Tdp2 knockout HEK293FT cells were obtained using the CRISPR/Cas9 method. At 10 μM concentration, the cell survival was not less than 80% for both types of cells. This concentration was chosen for further studies of the ability of the compounds to sensitize the effect of the Top2 inhibitor etoposide.

[4] = molecular target: tyrosyl-DNA phosphodiesterase 2; settings: Figure 2; read-out: IC50 (Tdp2); cited from earlier work
[5] = Effect of compounds on the cytotoxicity of etoposide, wild-type cells; format: cell-based; settings: human, HEK293FT wild-type cells; with vehicle (DMSO 1%), HEK293FT WT
Procedure: as §1
(§2) Different concentrations of etoposide and fixed concentrations of usnic acid derivatives 10 μM were used to evaluate the effect of the tested compounds on the cytotoxicity of etoposide.
We studied the effect of Tdp2 inhibitors on the cytotoxic effect of etoposide. The CC50 for etoposide was measured in the presence and absence of compounds. The sensitivity to etoposide in Tdp2 knockout cells was close to wild-type cells (Figure 4a). […] The significance of the differences between the metabolic activity of WT and Tdp2^−/− cells was assessed using the Mann–Whitney test. […]

[6] = Effect of compounds on the cytotoxicity of etoposide, Tdp2 knockout cells; format: cell-based; settings: human, HEK293FT Tdp2 knockout (Tdp2−/−) cells, with vehicle (DMSO 1%)
Procedure: as §1, §2
We performed a selection of protospacers for human Tdp2 gene knockout with the Benchling CRISPR tool (https://www.benchling.com/) (accessed on 13 February 2020). […]
We studied the effect of Tdp2 inhibitors on the cytotoxic effect of etoposide. The CC50 for etoposide was measured in the presence and absence of compounds. […] The significance of the differences between the metabolic activity of WT and Tdp2^−/− cells was assessed using the Mann–Whitney test. […]

[7] = Figure 2, read-out: IC50 (Tdp1)
[8] = Figure 1, read-out: IC50 (Tdp1)
[9] = (−)-usnic acid derivatives, read-out: Tdp1 IC50
[10] = (+)-usnic acid derivatives, read-out: Tdp1 IC50

Structure (SMILES): C[C@H](CCC(=O)NCCc1c[nH]c2ccccc12)[C@H]1CCC2C3CCC4C[C@H](OCc5ccccc5)CC[C@]4(C)C3C[C@H](O)[C@@]21C (stereo partly shown) [compound 8, reference compound]
- IC50 (Recombinant human Tdp2 [1]): ~1000 µM
- IC50 [2, 7]: 0.24 µM

Structure (SMILES): CC(=O)c1c(O)c(C)c(O)c2c1OC1=CC(=O)/C(=C(/C)NCCCc3cc(C(C)(C)C)c(O)c(C(C)(C)C)c3)C(=O)[C@@]12C [compound 3, reference compound]
- IC50 [2, 8]: 0.16 µM

Structure (SMILES): CC(=O)C1=C(O)C=C2Oc3c(-c4csc(NN=Cc5ccc[nH]5)n4)c(O)c(C)c(O)c3C2(C)C1=O (single isomer, unassigned; (-)) [(−)-11a]
- IC50 (Recombinant human Tdp2 [3]; (−)-usnic acid derivatives): 8 ± 4 µM
- IC50 [2, 9]: 0.018 ± 0.001 µM
- cell survival (HEK293FT Tdp2−/− cells): not less than 80%
- cell survival (HEK293FT wild-type cells): not less than 80%

Structure (SMILES): NC1=CC(N)=C2C=CC(=O)N=C2C1=O [compound 6]
- IC50 [4]: 1.7 µM

Structure (SMILES): CC(=O)C1=C(O)C=C2Oc3c(-c4csc(N/N=C/c5ccc(Br)cc5)n4)c(O)c(C)c(O)c3[C@@]2(C)C1=O [compound 4, reference compound]
- IC50 [2, 8]: 0.026 µM

Structure (SMILES): CC(C)=CCC/C(C)=C/COc1ccc2c(-c3ccc(I)cc3)cc(=O)oc2c1 [compound 2, reference compound]
- IC50 [2, 8]: 0.62 µM

Structure (SMILES): COc1cc([C@@H]2c3cc4c(cc3[C@@H](O[C@@H]3O[C@@H]5CO[C@@H](C)O[C@H]5[C@H](O)[C@H]3O)[C@H]3COC(=O)[C@H]23)OCO4)cc(OC)c1O [etoposide]
- CC50 at 3 days [5]: 2.4 µM
- CC50 at 3 days [6]: 2.3 µM

Structure (SMILES): COc1ccc(C=NNc2nc(-c3c(O)c(C)c(O)c4c3OC3=CC(O)=C(C(C)=O)C(=O)C34C)cs2)cc1CN1CCN(c2ccc(F)cc2)CC1 (single isomer, unassigned; (+)) [(+)-11h]
- IC50 (Recombinant human Tdp2 [3]; (+)-usnic acid derivatives): > 50 µM
- IC50 [2, 10]: 0.08 ± 0.007 µM

Structure (SMILES): CC(=O)C1=C(O)C=C2Oc3c(-c4csc(NN=Cc5c[nH]c6ccccc56)n4)c(O)c(C)c(O)c3C2(C)C1=O (single isomer, unassigned; (+)) [(+)-11d]
- IC50 (Recombinant human Tdp2 [3]; (+)-usnic acid derivatives): > 50 µM
- IC50 [2, 10]: 0.026 ± 0.006 µM

Structure (SMILES): CC(=O)C1=C(O)C=C2Oc3c(-c4csc(NN=Cc5ccc[nH]5)n4)c(O)c(C)c(O)c3C2(C)C1=O (single isomer, unassigned; (+)) [(+)-11a]
- IC50 (Recombinant human Tdp2 [3]; (+)-usnic acid derivatives): > 50 µM
- IC50 [2, 10]: 0.188 ± 0.003 µM

Structure (SMILES): COc1ccc(C=NNc2nc(-c3c(O)c(C)c(O)c4c3OC3=CC(O)=C(C(C)=O)C(=O)C34C)cs2)cc1CN1CCN(c2ccc(F)cc2)CC1 (single isomer, unassigned; (-)) [(−)-11h]
- IC50 (Recombinant human Tdp2 [3]; (−)-usnic acid derivatives): 9 ± 1 µM
- IC50 [2, 9]: 0.059 ± 0.005 µM
- cell survival (HEK293FT Tdp2−/− cells): not less than 80%
- cell survival (HEK293FT wild-type cells): not less than 80%

Structure (SMILES): CC(=O)C1=C(O)C=C2Oc3c(C(=O)CSC4=NCCS4)c(O)c(C)c(O)c3[C@@]2(C)C1=O [compound 7, reference compound]
- IC50 (Recombinant human Tdp2 [1]): ~1000 µM
- IC50 [2, 7]: 4.4 µM

Structure (SMILES): CC(=O)C1=C(O)C=C2Oc3c(-c4csc(NN=Cc5c[nH]c6ccccc56)n4)c(O)c(C)c(O)c3C2(C)C1=O (single isomer, unassigned; (-)) [(−)-11d]
- IC50 (Recombinant human Tdp2 [3]; (−)-usnic acid derivatives): 6 ± 3 µM
- IC50 [2, 9]: 0.057 ± 0.001 µM
- cell survival (HEK293FT Tdp2−/− cells): not less than 80%
- cell survival (HEK293FT wild-type cells): not less than 80%
